Test results published in patent US20140057908A1, “Method of Treating Cancer” (Exelixis, Inc., priority 2010, published 2014).

Columns and labels:
xenograft tumor models = test: xenograft tumor models; settings: in vivo
[1] = test system: castration-resistant prostate cancer (CRPC) with bone metastases; test: adaptive phase 2 trial (NCT00940225), case studies of the first three CRPC patients with bone metastases; format: in vivo, human; settings: for Bone scan (best response) / PSA (best response) / tALP (best response) / Hemoglobin (best response): 100 mg dose; for Hemoglobin (best response): change from baseline; for PSA: Week 18
Excerpt: All patients provided informed consent before study screening.

[2] = test system: pancreatic neuroendocrine tumor; test: murine pancreatic neuroendocrine tumor model; settings: mouse, in vivo
[3] = gravimetric vapor sorption (GVS) study; format: physicochemical; settings: crystalline form; 25° C. and 90% humidity
Procedure: A gravimetric vapor sorption (GVS) study was run using a standard procedure. Samples were run on a dynamic vapor sorption analyzer (Surface Measurement Systems) running DVSCFR software. Sample sizes were typically 10 mg. A moisture adsorption desorption isotherm was performed as outlined below. The standard isotherm experiment, performed at 25° C., is a two-cycle run, starting at 40% RH, increasing humidity to 90% RH, decreasing humidity to 0% RH, increasing humidity again to 90% RH, and finally decreasing humidity to 0% RH in 10% RH intervals.

COc1cc2nccc(Oc3ccc(NC(=O)C4(C(=O)Nc5ccc(F)cc5)CC4)cc3)c2cc1OC [Compound 1, N-(4-{[6,7-bis(methyloxy)quinolin-4-yl]oxy}phenyl)-N′-(4-fluorophenyl)cyclopropane-1,1-dicarboxamide]
effect on tumors in xenograft tumor models (xenograft tumor models): causes tumor regression
Bone scan (best response) ([1]; Patient 1): Complete
PSA (best response) ([1]; Patient 1): −78%
tALP (best response) ([1]; Patient 1): −77%
Hemoglobin (best response) ([1]; Patient 1): +1.4 g/dL
CT scan response ([1]; Patient 1, Week 6): partial response (PR)
decrease in measurable target lesions (CT scan) ([1]; Patient 1, Week 6): 33%
PSA ([1]; Patient 1, baseline 430 ng/mL): 93.5 ng/mL
PSA (best response) ([1]; Patient 2): +61%
tALP (best response) ([1]; Patient 2): −6%
Hemoglobin (best response) ([1]; Patient 2): +1.8 g/dL
decrease in target lesions (CT scan) ([1]; Patient 2, Week 6): 13%
Bone scan (best response) ([1]; Patient 3): Near resolution
PSA (best response) ([1]; Patient 3): −57%
tALP (best response) ([1]; Patient 3): −77%
Hemoglobin (best response) ([1]; Patient 3): +2.2 g/dL
decrease in measurable target lesions (CT scan) ([1]; Patient 3, Week 6): 43%
PSA ([1]; Patient 3, 2.4 ng/mL at screening): 1.2 ng/mL
bone lesions, summary of three metastatic CRPC patients ([1]; all three patients): near complete resolution of bone lesions
uptake of radiotracer on bone scan, summary ([1]; all three patients): striking decrease in uptake of radiotracer on bone scan
overall survival [2]: substantially improves overall survival
tumor invasiveness and metastasis [2]: significantly reduces tumor invasiveness and metastasis

COc1cc2c(Oc3ccc(NC(=O)C4(C(=O)Nc5ccc(F)cc5)CC4)cc3F)ccnc2cc1OCCCN1CCOCC1 [Compound 2, N-[3-fluoro-4-({6-(methyloxy)-7-[(3-morpholin-4-ylpropyl)oxy]quinolin-4-yl}oxy)phenyl]-N′-(4-fluorophenyl)cyclopropane-1,1-dicarboxamide]
effect on tumors in xenograft tumor models (xenograft tumor models): causes tumor regression
overall survival [2]: substantially improves overall survival
tumor invasiveness and metastasis [2]: significantly reduces tumor invasiveness and metastasis
weight gain (GVS) [3]: 2.5%
